Measurements taken from ChEMBL document CHEMBL4507257, “Data for DCP probe ABT-100” (2021).

Assays:
[1] = molecular target: Cyclin-dependent kinase 16 (Homo sapiens) (UniProt Q00536); conditions: Compound concentration 1000.0 nM
[2] = test system: Receptor-type tyrosine-protein kinase FLT3 (Homo sapiens), P36888 [UNDEFINED MUTATION]; conditions: Compound concentration 1000.0 nM
[3] = molecular target: Serine/threonine-protein kinase SIK1 (Homo sapiens) (UniProt P57059); conditions: Compound concentration 1000.0 nM
[4] = molecular target: Ephrin type-A receptor 6 (Homo sapiens) (UniProt Q9UF33); conditions: Compound concentration 1000.0 nM
[5] = molecular target: Receptor-interacting serine/threonine-protein kinase 1 (Homo sapiens) (UniProt Q13546); conditions: Compound concentration 1000.0 nM
[6] = molecular target: Ribosomal protein S6 kinase alpha-3 (Homo sapiens) (UniProt P51812); conditions: Compound concentration 1000.0 nM
[7] = molecular target: Serine/threonine-protein kinase MARK2 (Homo sapiens) (UniProt Q7KZI7); conditions: Compound concentration 1000.0 nM
[8] = molecular target: Serine/threonine-protein kinase 38 (Homo sapiens) (UniProt Q15208); conditions: Compound concentration 1000.0 nM
[9] = molecular target: RAC-beta serine/threonine-protein kinase (Homo sapiens) (UniProt P31751); conditions: Compound concentration 1000.0 nM
[10] = molecular target: Alpha-1A adrenergic receptor (Homo sapiens) (UniProt P35348); conditions: Compound concentration 10.0 uM
[11] = molecular target: Activin receptor type-1B (Homo sapiens) (UniProt P36896); conditions: Compound concentration 1000.0 nM
[12] = test system: ALK tyrosine kinase receptor (Homo sapiens), Q9UM73 [L1196M]; conditions: Compound concentration 1000.0 nM
[13] = molecular target: AP2-associated protein kinase 1 (Homo sapiens) (UniProt Q2M2I8); conditions: Compound concentration 1000.0 nM
[14] = molecular target: Serine/threonine-protein kinase SBK1 (Homo sapiens) (UniProt Q52WX2); conditions: Compound concentration 1000.0 nM
[15] = test system: Proto-oncogene tyrosine-protein kinase receptor Ret (Homo sapiens), P07949 [V804M]; conditions: Compound concentration 1000.0 nM
[16] = test system: ALK tyrosine kinase receptor (Homo sapiens), Q9UM73 [C1156Y]; conditions: Compound concentration 1000.0 nM
[17] = molecular target: Serine/threonine-protein kinase 36 (Homo sapiens) (UniProt Q9NRP7); conditions: Compound concentration 1000.0 nM
[18] = molecular target: Serine/threonine-protein kinase Nek1 (Homo sapiens) (UniProt Q96PY6); conditions: Compound concentration 1000.0 nM
Serine/threonine-protein kinase Nek1 (Homo sapiens), sequence (Q96PY6 whole entry): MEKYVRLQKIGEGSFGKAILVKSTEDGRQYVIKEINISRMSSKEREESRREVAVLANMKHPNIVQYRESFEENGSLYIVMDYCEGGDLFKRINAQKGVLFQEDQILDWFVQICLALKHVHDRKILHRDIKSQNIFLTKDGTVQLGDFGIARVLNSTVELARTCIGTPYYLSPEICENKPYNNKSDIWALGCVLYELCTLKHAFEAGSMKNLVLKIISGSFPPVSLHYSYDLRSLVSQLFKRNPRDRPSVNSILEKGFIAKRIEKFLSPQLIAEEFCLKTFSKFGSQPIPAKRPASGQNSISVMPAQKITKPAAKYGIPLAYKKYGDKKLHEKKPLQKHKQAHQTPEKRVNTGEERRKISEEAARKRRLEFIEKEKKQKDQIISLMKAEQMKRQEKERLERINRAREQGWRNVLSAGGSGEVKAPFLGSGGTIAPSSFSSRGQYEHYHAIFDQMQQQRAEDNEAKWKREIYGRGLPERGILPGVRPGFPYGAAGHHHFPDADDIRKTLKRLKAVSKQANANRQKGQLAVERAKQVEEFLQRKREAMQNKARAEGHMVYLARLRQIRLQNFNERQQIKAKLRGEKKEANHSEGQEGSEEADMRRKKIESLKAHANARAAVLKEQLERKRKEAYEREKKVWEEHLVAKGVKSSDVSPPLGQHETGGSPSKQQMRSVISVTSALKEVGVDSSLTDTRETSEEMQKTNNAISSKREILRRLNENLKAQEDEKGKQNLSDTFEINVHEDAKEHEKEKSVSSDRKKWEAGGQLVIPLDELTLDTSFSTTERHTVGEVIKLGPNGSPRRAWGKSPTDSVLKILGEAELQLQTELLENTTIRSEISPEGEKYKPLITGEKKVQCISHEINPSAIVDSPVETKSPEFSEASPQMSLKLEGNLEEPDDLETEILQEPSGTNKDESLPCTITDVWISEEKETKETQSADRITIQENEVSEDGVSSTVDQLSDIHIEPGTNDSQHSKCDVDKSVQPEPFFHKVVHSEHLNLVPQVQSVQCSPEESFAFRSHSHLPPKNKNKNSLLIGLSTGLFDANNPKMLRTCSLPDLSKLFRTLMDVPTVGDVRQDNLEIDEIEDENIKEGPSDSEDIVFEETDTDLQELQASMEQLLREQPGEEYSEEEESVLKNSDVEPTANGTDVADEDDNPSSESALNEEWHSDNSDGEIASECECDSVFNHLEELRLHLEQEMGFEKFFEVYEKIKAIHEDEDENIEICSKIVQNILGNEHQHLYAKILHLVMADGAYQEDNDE

[19] = molecular target: Serine/threonine-protein kinase RIO1 (Homo sapiens) (UniProt Q9BRS2); conditions: Compound concentration 1000.0 nM
[20] = molecular target: Histamine H2 receptor (Homo sapiens) (UniProt P25021); conditions: Compound concentration 10.0 uM
Histamine H2 receptor (Homo sapiens), sequence (P25021 whole entry): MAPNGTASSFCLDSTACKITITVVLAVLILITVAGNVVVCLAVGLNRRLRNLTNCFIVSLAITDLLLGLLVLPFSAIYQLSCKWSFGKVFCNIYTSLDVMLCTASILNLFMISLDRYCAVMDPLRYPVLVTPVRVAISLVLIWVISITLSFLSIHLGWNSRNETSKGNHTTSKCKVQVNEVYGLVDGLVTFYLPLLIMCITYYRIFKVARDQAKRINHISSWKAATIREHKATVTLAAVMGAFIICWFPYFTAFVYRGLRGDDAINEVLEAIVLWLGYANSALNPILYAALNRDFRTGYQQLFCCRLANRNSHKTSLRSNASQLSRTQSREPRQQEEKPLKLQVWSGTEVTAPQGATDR

[21] = molecular target: Ephrin type-A receptor 8 (Homo sapiens) (UniProt P29322); conditions: Compound concentration 1000.0 nM
[22] = molecular target: Proto-oncogene tyrosine-protein kinase receptor Ret (Homo sapiens) (UniProt P07949); conditions: Compound concentration 1000.0 nM
[23] = molecular target: Glycogen synthase kinase-3 beta (Homo sapiens) (UniProt P49841); conditions: Compound concentration 1000.0 nM
[24] = molecular target: Serine/threonine-protein kinase TAO3 (Homo sapiens) (UniProt Q9H2K8); conditions: Compound concentration 1000.0 nM
[25] = molecular target: Mitogen-activated protein kinase 1 (Homo sapiens) (UniProt P28482); conditions: Compound concentration 1000.0 nM
Mitogen-activated protein kinase 1 (Homo sapiens), sequence (P28482 whole entry): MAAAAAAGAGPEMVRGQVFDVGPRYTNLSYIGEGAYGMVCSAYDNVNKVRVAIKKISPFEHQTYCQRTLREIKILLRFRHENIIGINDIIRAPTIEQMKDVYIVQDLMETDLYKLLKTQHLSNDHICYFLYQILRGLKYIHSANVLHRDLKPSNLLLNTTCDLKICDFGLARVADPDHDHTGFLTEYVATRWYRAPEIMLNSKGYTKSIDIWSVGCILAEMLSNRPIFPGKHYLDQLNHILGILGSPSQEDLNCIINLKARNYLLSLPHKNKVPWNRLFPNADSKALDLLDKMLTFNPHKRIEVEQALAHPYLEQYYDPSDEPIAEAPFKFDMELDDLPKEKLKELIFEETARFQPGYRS

[26] = molecular target: Dual specificity mitogen-activated protein kinase kinase 3 (Homo sapiens) (UniProt P46734); conditions: Compound concentration 1000.0 nM
[27] = molecular target: Serine/threonine-protein kinase tousled-like 1 (Homo sapiens) (UniProt Q9UKI8); conditions: Compound concentration 1000.0 nM
[28] = molecular target: Tyrosine-protein kinase Blk (Homo sapiens) (UniProt P51451); conditions: Compound concentration 1000.0 nM
Tyrosine-protein kinase Blk (Homo sapiens), sequence (P51451 2-505 limits assumed): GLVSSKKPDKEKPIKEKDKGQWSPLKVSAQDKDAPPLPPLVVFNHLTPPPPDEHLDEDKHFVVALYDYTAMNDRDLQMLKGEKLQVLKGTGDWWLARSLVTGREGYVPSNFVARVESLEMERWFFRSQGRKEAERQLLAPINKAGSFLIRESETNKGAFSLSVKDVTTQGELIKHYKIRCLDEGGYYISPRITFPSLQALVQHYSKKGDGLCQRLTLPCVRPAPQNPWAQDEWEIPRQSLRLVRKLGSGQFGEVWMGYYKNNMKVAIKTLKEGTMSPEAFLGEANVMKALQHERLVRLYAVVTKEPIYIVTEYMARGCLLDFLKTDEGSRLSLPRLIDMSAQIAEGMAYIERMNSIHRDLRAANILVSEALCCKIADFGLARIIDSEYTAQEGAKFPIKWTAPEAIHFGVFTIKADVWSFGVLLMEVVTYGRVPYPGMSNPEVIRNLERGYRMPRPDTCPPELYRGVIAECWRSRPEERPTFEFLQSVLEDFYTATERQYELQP

[29] = molecular target: Mitogen-activated protein kinase 7 (Homo sapiens) (UniProt Q13164); conditions: Compound concentration 1000.0 nM
[30] = molecular target: Tyrosine-protein kinase receptor TYRO3 (Homo sapiens) (UniProt Q06418); conditions: Compound concentration 1000.0 nM
[31] = molecular target: Serine/threonine-protein kinase MRCK beta (Homo sapiens) (UniProt Q9Y5S2); conditions: Compound concentration 1000.0 nM
Serine/threonine-protein kinase MRCK beta (Homo sapiens), sequence (Q9Y5S2 whole entry): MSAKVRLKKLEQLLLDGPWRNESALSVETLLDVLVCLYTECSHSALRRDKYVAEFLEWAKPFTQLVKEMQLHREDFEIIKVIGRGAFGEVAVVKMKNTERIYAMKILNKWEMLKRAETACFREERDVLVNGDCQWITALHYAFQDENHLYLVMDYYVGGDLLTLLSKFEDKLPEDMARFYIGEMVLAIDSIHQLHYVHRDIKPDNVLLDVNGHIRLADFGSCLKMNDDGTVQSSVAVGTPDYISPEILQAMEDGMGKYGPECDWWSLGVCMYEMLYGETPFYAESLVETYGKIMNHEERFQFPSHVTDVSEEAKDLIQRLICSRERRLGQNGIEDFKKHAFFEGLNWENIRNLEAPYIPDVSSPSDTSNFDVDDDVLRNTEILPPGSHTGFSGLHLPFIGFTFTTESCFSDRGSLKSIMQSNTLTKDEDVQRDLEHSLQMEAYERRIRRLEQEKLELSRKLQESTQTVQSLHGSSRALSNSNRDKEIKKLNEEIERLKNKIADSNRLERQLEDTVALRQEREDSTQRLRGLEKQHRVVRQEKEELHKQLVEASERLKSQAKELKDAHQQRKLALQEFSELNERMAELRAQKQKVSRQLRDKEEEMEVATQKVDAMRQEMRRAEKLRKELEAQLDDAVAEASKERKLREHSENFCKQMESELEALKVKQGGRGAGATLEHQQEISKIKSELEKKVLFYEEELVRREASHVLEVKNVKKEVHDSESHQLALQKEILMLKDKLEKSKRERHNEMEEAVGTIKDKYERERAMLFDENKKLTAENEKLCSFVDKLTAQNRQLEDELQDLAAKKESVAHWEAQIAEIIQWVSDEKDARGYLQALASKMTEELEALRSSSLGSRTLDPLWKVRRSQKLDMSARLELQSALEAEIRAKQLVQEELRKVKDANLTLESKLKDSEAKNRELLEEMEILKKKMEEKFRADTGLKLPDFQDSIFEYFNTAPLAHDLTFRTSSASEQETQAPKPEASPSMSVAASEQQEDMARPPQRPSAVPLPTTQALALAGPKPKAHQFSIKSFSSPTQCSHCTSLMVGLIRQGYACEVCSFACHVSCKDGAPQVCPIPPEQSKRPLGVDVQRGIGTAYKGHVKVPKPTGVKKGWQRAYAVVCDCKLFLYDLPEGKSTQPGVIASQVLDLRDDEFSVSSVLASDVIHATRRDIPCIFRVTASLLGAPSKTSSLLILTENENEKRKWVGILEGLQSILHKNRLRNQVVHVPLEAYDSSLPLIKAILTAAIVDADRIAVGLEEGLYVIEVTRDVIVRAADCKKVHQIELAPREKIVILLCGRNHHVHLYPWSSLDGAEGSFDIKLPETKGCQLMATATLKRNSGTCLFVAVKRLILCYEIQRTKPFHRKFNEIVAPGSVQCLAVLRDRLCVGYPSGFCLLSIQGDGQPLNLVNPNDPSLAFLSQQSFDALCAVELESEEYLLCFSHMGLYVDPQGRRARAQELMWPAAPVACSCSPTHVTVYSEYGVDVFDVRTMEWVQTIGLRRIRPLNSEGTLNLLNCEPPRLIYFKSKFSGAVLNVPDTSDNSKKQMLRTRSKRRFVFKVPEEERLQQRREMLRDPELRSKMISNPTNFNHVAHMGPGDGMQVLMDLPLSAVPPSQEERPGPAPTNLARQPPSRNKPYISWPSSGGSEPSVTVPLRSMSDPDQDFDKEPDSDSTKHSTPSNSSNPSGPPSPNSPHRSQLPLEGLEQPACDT

[32] = molecular target: Mu-type opioid receptor (Homo sapiens) (UniProt P35372); conditions: Compound concentration 10.0 uM
[33] = molecular target: Serine/threonine-protein kinase N2 (Homo sapiens) (UniProt Q16513); conditions: Compound concentration 1000.0 nM
[34] = test system: Epidermal growth factor receptor (Homo sapiens), P00533 [L858R,T790M]; conditions: Compound concentration 1000.0 nM
[35] = test system: Mast/stem cell growth factor receptor Kit (Homo sapiens), P10721 [D816V]; conditions: Compound concentration 1000.0 nM
[36] = molecular target: Ribosomal protein S6 kinase alpha-5 (Homo sapiens) (UniProt O75582); conditions: Compound concentration 1000.0 nM
Ribosomal protein S6 kinase alpha-5 (Homo sapiens), sequence (O75582 whole entry, looked up): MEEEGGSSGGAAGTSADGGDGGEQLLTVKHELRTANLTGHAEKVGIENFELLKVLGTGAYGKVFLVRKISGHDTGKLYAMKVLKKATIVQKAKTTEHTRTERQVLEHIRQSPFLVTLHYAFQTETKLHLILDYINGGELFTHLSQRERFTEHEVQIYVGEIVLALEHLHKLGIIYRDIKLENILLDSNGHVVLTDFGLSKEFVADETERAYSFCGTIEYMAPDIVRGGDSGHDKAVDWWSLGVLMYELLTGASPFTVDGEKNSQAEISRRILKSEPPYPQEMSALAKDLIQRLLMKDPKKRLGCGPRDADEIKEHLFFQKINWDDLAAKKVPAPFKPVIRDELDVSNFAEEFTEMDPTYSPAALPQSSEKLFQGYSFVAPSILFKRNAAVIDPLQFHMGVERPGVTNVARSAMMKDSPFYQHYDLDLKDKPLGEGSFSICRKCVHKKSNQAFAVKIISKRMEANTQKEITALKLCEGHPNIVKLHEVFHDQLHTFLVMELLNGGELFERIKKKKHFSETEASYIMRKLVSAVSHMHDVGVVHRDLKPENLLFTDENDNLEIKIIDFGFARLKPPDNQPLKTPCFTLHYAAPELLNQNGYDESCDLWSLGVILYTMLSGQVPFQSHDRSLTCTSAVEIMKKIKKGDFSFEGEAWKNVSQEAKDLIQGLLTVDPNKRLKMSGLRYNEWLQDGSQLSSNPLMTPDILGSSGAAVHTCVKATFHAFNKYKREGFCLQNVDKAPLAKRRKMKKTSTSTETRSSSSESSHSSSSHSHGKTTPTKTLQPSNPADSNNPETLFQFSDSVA

[37] = molecular target: Mitogen-activated protein kinase kinase kinase 1 (Homo sapiens) (UniProt Q13233); conditions: Compound concentration 1000.0 nM
[38] = molecular target: Tyrosine-protein kinase CSK (Homo sapiens) (UniProt P41240); conditions: Compound concentration 1000.0 nM
[39] = molecular target: Delta-type opioid receptor (Homo sapiens) (UniProt P41143); conditions: Compound concentration 10.0 uM
[40] = molecular target: Calcium/calmodulin-dependent protein kinase kinase 1 (Homo sapiens) (UniProt Q8N5S9); conditions: Compound concentration 1000.0 nM
[41] = molecular target: Serine/threonine-protein kinase STK11 (Homo sapiens) (UniProt Q15831); conditions: Compound concentration 1000.0 nM
[42] = test system: Receptor-type tyrosine-protein kinase FLT3 (Homo sapiens), P36888 [K663Q]; conditions: Compound concentration 1000.0 nM
[43] = molecular target: Mitogen-activated protein kinase 6 (Homo sapiens) (UniProt Q16659); conditions: Compound concentration 1000.0 nM
[44] = molecular target: Testis-specific serine/threonine-protein kinase 3 (Homo sapiens) (UniProt Q96PN8); conditions: Compound concentration 1000.0 nM
[45] = molecular target: Serine/threonine-protein kinase mTOR (Homo sapiens) (UniProt P42345); conditions: Compound concentration 1000.0 nM

Cn1cncc1[C@](O)(COc1ccc(C#N)cc1-c1ccc(OC(F)(F)F)cc1)c1ccc(C#N)cc1 [ABT-100]
residual activity [1]: 100% | residual activity [2]: 100% | residual activity [3]: 95% | residual activity [4]: 100% | residual activity [5]: 79% | residual activity [6]: 87% | residual activity [7]: 95% | residual activity [8]: 75% | residual activity [9]: 81% | inhibition [10]: -7.75% | residual activity [11]: 87% | residual activity [12]: 100% | residual activity [13]: 87% | residual activity [14]: 100% | residual activity [15]: 99% | residual activity [16]: 92% | residual activity [17]: 80% | residual activity [18]: 80% | residual activity [19]: 72% | inhibition [20]: 14.4% | residual activity [21]: 72% | residual activity [22]: 94% | residual activity [23]: 93% | residual activity [24]: 87% | residual activity [25]: 90% | residual activity [26]: 78% | residual activity [27]: 100% | residual activity [28]: 90% | residual activity [29]: 93% | residual activity [30]: 61% | residual activity [31]: 76% | inhibition [32]: 16.4% | residual activity [33]: 100% | residual activity [34]: 100% | residual activity [35]: 85% | residual activity [36]: 94% | residual activity [37]: 90% | residual activity [38]: 82% | inhibition [39]: -0.182% | residual activity [40]: 77% | residual activity [41]: 71% | residual activity [42]: 90% | residual activity [43]: 85% | residual activity [44]: 98% | residual activity [45]: 57%

Cn1cncc1[C@@](O)(COc1ccc(C#N)cc1-c1ccc(OC(F)(F)F)cc1)c1ccc(C#N)cc1 [A-108]
residual activity [1]: 85% | residual activity [2]: 89% | residual activity [3]: 100% | residual activity [4]: 3% | residual activity [5]: 90% | residual activity [6]: 72% | residual activity [7]: 100% | residual activity [8]: 100% | residual activity [9]: 78% | inhibition [10]: 4.51% | residual activity [11]: 100% | residual activity [12]: 100% | residual activity [13]: 94% | residual activity [14]: 100% | residual activity [15]: 98% | residual activity [16]: 98% | residual activity [17]: 93% | residual activity [18]: 100% | residual activity [19]: 100% | inhibition [20]: 5.38% | residual activity [21]: 100% | residual activity [22]: 100% | residual activity [23]: 100% | residual activity [24]: 100% | residual activity [25]: 91% | residual activity [26]: 100% | residual activity [27]: 100% | residual activity [28]: 71% | residual activity [29]: 93% | residual activity [30]: 100% | residual activity [31]: 95% | inhibition [32]: -3.25% | residual activity [33]: 85% | residual activity [34]: 96% | residual activity [35]: 100% | residual activity [36]: 88% | residual activity [37]: 100% | residual activity [38]: 100% | inhibition [39]: 2.4% | residual activity [40]: 100% | residual activity [41]: 100% | residual activity [42]: 64% | residual activity [43]: 93% | residual activity [44]: 100% | residual activity [45]: 100%
